Experimental data taken from US10112926B2 (priority 2014, dated 2018).
Where a name gives a salt, the structure may show the parent alone.

Key:
PI 4-kinase beta = PI 4-kinase beta (Homo sapiens (Human), UniProt Q9UBF8); conditions: read-out: Assay D PI4Kβ IC50
Vps34 = Vps34 (Homo sapiens (Human), UniProt Q8NEB9); conditions: read-out: Assay C VPS34 IC50
Vps34, sequence (Q8NEB9 whole entry): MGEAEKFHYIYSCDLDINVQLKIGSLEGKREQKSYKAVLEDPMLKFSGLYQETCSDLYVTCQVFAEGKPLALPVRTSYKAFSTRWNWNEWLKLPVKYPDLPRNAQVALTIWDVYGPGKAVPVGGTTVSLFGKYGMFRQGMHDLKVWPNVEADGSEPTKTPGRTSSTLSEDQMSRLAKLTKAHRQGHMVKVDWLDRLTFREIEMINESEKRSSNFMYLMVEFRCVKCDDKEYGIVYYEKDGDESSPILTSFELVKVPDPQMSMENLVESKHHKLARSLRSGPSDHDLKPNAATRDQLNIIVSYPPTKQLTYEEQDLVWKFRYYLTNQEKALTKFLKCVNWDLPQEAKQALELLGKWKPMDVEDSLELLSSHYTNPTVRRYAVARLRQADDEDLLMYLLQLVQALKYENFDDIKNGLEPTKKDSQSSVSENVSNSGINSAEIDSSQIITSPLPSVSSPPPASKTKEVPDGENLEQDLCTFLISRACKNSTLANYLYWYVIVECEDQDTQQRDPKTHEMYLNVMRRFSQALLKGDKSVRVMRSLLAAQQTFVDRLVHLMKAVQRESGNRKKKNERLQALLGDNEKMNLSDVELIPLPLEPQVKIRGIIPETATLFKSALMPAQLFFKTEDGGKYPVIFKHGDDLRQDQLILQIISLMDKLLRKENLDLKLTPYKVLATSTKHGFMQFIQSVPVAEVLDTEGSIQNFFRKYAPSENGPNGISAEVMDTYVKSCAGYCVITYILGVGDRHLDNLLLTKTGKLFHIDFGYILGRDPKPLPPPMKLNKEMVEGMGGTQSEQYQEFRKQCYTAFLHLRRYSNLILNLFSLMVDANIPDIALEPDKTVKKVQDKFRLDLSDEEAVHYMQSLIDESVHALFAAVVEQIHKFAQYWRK

PI 4-kinase beta, sequence (Q9UBF8 whole entry): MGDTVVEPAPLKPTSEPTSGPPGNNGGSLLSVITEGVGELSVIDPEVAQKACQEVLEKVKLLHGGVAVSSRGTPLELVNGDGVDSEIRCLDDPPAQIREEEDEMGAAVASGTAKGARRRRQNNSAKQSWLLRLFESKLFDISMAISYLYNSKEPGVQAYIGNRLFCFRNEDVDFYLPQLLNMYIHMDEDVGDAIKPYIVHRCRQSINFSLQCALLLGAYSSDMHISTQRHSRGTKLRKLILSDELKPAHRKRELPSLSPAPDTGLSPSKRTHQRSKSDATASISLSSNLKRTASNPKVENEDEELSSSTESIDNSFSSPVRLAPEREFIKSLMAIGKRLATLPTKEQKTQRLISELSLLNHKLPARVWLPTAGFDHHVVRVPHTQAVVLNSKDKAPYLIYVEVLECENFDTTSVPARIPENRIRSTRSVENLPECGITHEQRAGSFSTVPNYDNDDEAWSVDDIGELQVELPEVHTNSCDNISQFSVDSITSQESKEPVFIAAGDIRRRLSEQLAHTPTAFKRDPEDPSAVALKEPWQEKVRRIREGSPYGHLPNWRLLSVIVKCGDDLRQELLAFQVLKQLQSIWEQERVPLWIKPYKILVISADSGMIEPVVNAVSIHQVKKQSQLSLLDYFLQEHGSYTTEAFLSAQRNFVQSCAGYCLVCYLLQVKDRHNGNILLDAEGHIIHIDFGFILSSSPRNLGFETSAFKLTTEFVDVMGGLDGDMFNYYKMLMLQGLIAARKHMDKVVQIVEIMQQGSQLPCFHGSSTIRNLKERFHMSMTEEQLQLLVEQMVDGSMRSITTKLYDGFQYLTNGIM

Cc1ccc(S(=O)(=O)NCCC(C)(C)O)cc1-c1cnc(N)c(-c2cnn(CC(F)(F)F)c2)c1 [Example 3, 3-(6-Amino-5-(1-(2,2,2-trifluoroethyl)-1H-pyrazol-4-yl)pyridin-3-yl)-N-(3-hydroxy-3-methylbutyl)-4-methylbenzenesulfonamide]
IC50 (PI 4-kinase beta): 1.08 µM | IC50 (Vps34): > 9.1 µM

Cc1noc(-c2cc(-c3cc(S(=O)(=O)NCC(C)(C)O)ccc3C)cnc2N)n1 [Example 10, 3-(6-Amino-5-(3-methyl-1,2,4-oxadiazol-5-yl)pyridin-3-yl)-N-(2-hydroxy-2-methylpropyl)-4-methylbenzenesulfonamide, hydrochloride salt]
IC50 (PI 4-kinase beta): > 9.8 µM | IC50 (Vps34): > 9.8 µM

Cc1cc(-c2cc(-c3cc(S(=O)(=O)NC4CCOC4=O)ccc3C)cnc2N)on1 (stereo not shown) [Example 19.2, 3-(6-amino-5-(3-methylisoxazol-5-yl)pyridin-3-yl)-4-methyl-N-(2-oxotetrahydrofuran-3-yl)benzene sulfonamide trifluoroacetic acid salt]
IC50 (PI 4-kinase beta): 3.7 µM | IC50 (Vps34): > 10 µM

Cc1cc(-c2cc(-c3cc(S(=O)(=O)NCCC4CCOCC4)ccc3C)cnc2N)on1 [Example 19.12, 3-(6-amino-5-(3-methylisoxazol-5-yl)pyridin-3-yl)-4-methyl-N-(2-(tetrahydro-2H-pyran-4-yl)ethyl)benzenesulfon-amide trifluoroacetic acid salt]
IC50 (PI 4-kinase beta): 4.3 µM | IC50 (Vps34): > 10 µM

Cc1cc(-c2cc(-c3cc(S(=O)(=O)N[C@@H](C)C4CC4)ccc3C)cnc2N)on1 [Example 19.13, (S)-3-(6-amino-5-(3-methylisoxazol-5-yl)pyridin-3-yl)-N-(1-cyclopropylethyl)-4-methylbenzenesulfon-amide trifluoroacetic acid salt]
IC50 (PI 4-kinase beta): 1.6 µM | IC50 (Vps34): > 10 µM

Cc1cc(-c2cc(-c3cc(S(=O)(=O)N[C@H]4CCC[C@H](O)C4)ccc3C)cnc2N)on1 [Example 19.16, 3-(6-amino-5-(3-methylisoxazol-5-yl)pyridin-3-yl)-N-((1S,3S)-3-hydroxycyclohexyl)-4-methylbenzenesulfon-amide trifluoroacetic acid salt]
IC50 (PI 4-kinase beta): 1.5 µM | IC50 (Vps34): > 10 µM

COCC1CCN(S(=O)(=O)c2ccc(C)c(-c3cnc(N)c(-c4cc(C)no4)c3)c2)CC1 [Example 19.18, 5-(5-((4-(methoxymethyl)piperidin-1-yl)sulfonyl)-2-methylphenyl)-3-(3-methylisoxazol-5-yl)pyridin-2-amine trifluoroacetic acid salt]
IC50 (PI 4-kinase beta): 3.8 µM

COC[C@@H]1COCCN1S(=O)(=O)c1ccc(C)c(-c2cnc(N)c(-c3cc(C)no3)c2)c1 [Example 19.20, (R)-5-(5-((3-(methoxymethyl)morpho-lino)sulfonyl)-2-methylphenyl)-3-(3-methylisoxazol-5-yl)pyridin-2-amine trifluoroacetic acid salt]
IC50 (PI 4-kinase beta): 4.2 µM

Cc1cc(-c2cc(-c3cc(S(=O)(=O)NCC4COC4)ccc3C)cnc2N)on1 [Example 25, 3-(6-Amino-5-(3-methylisoxazol-5-yl)pyridin-3-yl)-4-methyl-N-(oxetan-3-ylmethyl)benzenesulfonamide]
IC50 (PI 4-kinase beta): 1.3 µM | IC50 (Vps34): > 10 µM

Cc1cc(-c2cc(-c3cc(S(=O)(=O)NC4CC4)ccc3C)cnc2N)on1 [Example 31, 3-(6-Amino-5-(3-methylisoxazol-5-yl)pyridin-3-yl)-N-cyclopropyl-4-methylbenzenesulfonamide]
IC50 (PI 4-kinase beta): 1.26 µM | IC50 (Vps34): > 10 µM

Cc1ncc(-c2cc(-c3cc(S(N)(=O)=O)ccc3C)cnc2N)o1 [Example 33, 3-(6-Amino-5-(2-methyloxazol-5-yl)pyridin-3-yl)-4-methylbenzenesulfonamide]
IC50 (PI 4-kinase beta): 4.45 µM | IC50 (Vps34): 3.9 µM

Cc1ccc(S(=O)(=O)N[C@H]2CC[C@H](O)CC2)cc1-c1cnc(N)c(-c2cc(C(C)(C)C)no2)c1 [Example 35.2, trans-3-(6-Amino-5-(3-(tert-butyl)isoxazol-5-yl)pyridin-3-yl)-N-(−4-hydroxycyclohexyl)-4-methylbenzenesulfonamide hydrochloride]
IC50 (PI 4-kinase beta): 0.63 µM | IC50 (Vps34): > 10 µM

Cc1ccc(S(=O)(=O)NCC(C)(C)O)cc1-c1cnc(N)c(-c2cc(C3CC3)no2)c1 [Example 35.3, 3-(6-Amino-5-(3-cyclopropylisoxazol-5-yl)pyridin-3-yl)-N-(2-hydroxy-2-methylpropyl)-4-methylbenzenesulfonamide hydrochloride]
IC50 (PI 4-kinase beta): 1.3 µM | IC50 (Vps34): > 10 µM

Cc1cc(-c2cc(-c3cc(S(=O)(=O)NCC4(CO)CCOCC4)ccc3C)cnc2N)on1 [Example 37.1, 3-(6-Amino-5-(3-methylisoxazol-5-yl)pyridin-3-yl)-N-((4-(hydroxymethyl)tetrahydro-2H-pyran-4-yl)methyl)-4-methylbenzenesulfonamide]
IC50 (PI 4-kinase beta): 3.5 µM

Cc1cc(-c2cc(-c3cc(S(=O)(=O)N[C@@H]4CCNC(=O)C4)ccc3C)cnc2N)on1 [Example 37.4, (R)-3-(6-Amino-5-(3-methylisoxazol-5-yl)pyridin-3-yl)-4-methyl-N-(2-oxopiperidin-4-yl)benzenesulfonamide]
IC50 (PI 4-kinase beta): 2.4 µM | IC50 (Vps34): > 10 µM

Cc1noc(-c2cc(-c3cc(S(=O)(=O)NC[C@H]4CCCO4)ccc3C)cnc2N)n1 [Example 37.5, (R)-3-(6-Amino-5-(3-methyl-1,2,4-oxadiazol-5-yl)pyridin-3-yl)-4-methyl-N-((tetrahydrofuran-2-yl)methyl)benzenesulfonamide]
IC50 (PI 4-kinase beta): 8 µM

Cc1cc(-c2cc(-c3cc(S(=O)(=O)NCC4(CO)CCC4)ccc3C)cnc2N)on1 [Example 37.6, 3-(6-Amino-5-(3-methylisoxazol-5-yl)pyridin-3-yl)-N-((1-(hydroxymethyl)cyclobutyl)methyl)-4-methylbenzenesulfonamide]
IC50 (PI 4-kinase beta): 2.2 µM | IC50 (Vps34): > 10 µM

Cc1noc(-c2cc(-c3cc(S(=O)(=O)NCC4(CO)CCOCC4)ccc3C)cnc2N)n1 [Example 37.10, 3-(6-Amino-5-(3-methyl-1,2,4-oxadiazol-5-yl)pyridin-3-yl)-N-((4-(hydroxymethyl)tetrahydro-2H-pyran-4-yl)methyl)-4-methylbenzenesulfonamide]
IC50 (PI 4-kinase beta): > 10 µM | IC50 (Vps34): > 10 µM

Cc1cc(-c2cc(-c3cc(S(=O)(=O)N4CC(CO)C4)ccc3C)cnc2N)on1 [Example 37.12, (1-((3-(6-Amino-5-(3-methylisoxazol-5-yl)pyridin-3-yl)-4-methylphenyl)sulfonyl)azetidin-3-yl)methanol]
IC50 (PI 4-kinase beta): 3.4 µM | IC50 (Vps34): > 10 µM

COC1(C)CN(S(=O)(=O)c2ccc(C)c(-c3cnc(N)c(-c4cc(C)no4)c3)c2)C1 [Example 37.20, 5-(5-((3-Methoxy-3-methylazetidin-yl)sulfonyl)-2-methylphenyl)-3-(3-methylisoxazol-5-yl)pyridin-2-amine]
IC50 (PI 4-kinase beta): 5.1 µM

Cc1noc(-c2cc(-c3cc(S(=O)(=O)NC(CO)C4CCOC4)ccc3C)cnc2N)n1 (stereo not shown) [Example 37.21, 3-(6-Amino-5-(3-methyl-1,2,4-oxadiazol-5-yl)pyridin-3-yl)-N-(2-hydroxy-1-(tetrahydrofuran-3-yl)ethyl)-4-methylbenzenesulfonamide]
IC50 (PI 4-kinase beta): > 10 µM

Cc1noc(-c2cc(-c3cc(S(=O)(=O)N4CC[C@H](O)C4)ccc3C)cnc2N)n1 [Example 37.32, (S)-1-((3-(6-Amino-5-(3-methyl-1,2,4-oxadiazol-5-yl)pyridin-3-yl)-4-methylphenyl)sulfonyl)pyrrolidin-3-ol hydrochloride]
IC50 (PI 4-kinase beta): 8.5 µM

Cc1noc(-c2cc(-c3cc(S(=O)(=O)NC4CCN(C(C)C)CC4)ccc3C)cnc2N)n1 [Example 37.34, 3-(6-Amino-5-(3-methyl-1,2,4-oxadiazol-5-yl)pyridin-3-yl)-N-(1-isopropylpiperidin-4-yl)-4-methylbenzenesulfonamide]
IC50 (PI 4-kinase beta): > 10 µM

Cc1noc(-c2cc(-c3cc(S(=O)(=O)NCC(C)(F)F)ccc3C)cnc2N)n1 [Example 37.38, 3-(6-Amino-5-(3-methyl-1,2,4-oxadiazol-5-yl)pyridin-3-yl)-N-(2,2-difluoropropyl)-4-methylbenzenesulfonamide]
IC50 (PI 4-kinase beta): 7.5 µM

Cc1ccc(S(=O)(=O)NCC(C)(C)O)cc1-c1cnc(N)c(-c2cc(C(=O)N3CCOCC3)no2)c1 [Example 42, 3-(6-Amino-5-(3-(morpholine-4-carbonyl)isoxazol-5-yl)pyridin-3-yl)-N-(2-hydroxy-2-methylpropyl)-4-methylbenzenesulfonamide]
IC50 (PI 4-kinase beta): 2.9 µM

CONS(=O)(=O)c1ccc(C)c(-c2cnc(N)c(-c3nc(C)no3)c2)c1 [Example 46, 3-(6-Amino-5-(3-methyl-1,2,4-oxadiazol-5-yl)pyridin-3-yl)-N-methoxy-4-methylbenzenesulfonamide]
IC50 (PI 4-kinase beta): > 10 µM

Cc1ccc(S(=O)(=O)NCC(C)(C)O)cc1-c1cnc(N)c(-c2ccn(C)c2)c1 [Example 58, 3-(6-Amino-5-(1-methyl-1H-pyrrol-3-yl)pyridin-3-yl)-N-(2-hydroxy-2-methylpropyl)-4-methylbenzenesulfonamide hydrochloride]
IC50 (PI 4-kinase beta): 3.2 µM

Cc1noc(-c2cc(-c3cc(S(N)(=O)=O)ccc3C)cnc2N)n1 [Example 75, 3-(6-Amino-5-(3-methyl-1,2,4-oxadiazol-5-yl)pyridin-3-yl)-4-methylbenzenesulfonamide]
IC50 (PI 4-kinase beta): > 10 µM

Cc1ncc(-c2cc(-c3cc(S(=O)(=O)NCC(C)(C)CO)ccc3C)cnc2N)o1 [Example 104.2, 3-(6-amino-5-(2-methyloxazol-5-yl)pyridin-3-yl)-N-(3-hydroxy-2,2-dimethylpropyl)-4-methylbenzenesulfon-amide]
IC50 (PI 4-kinase beta): 1.1 µM

Cc1ncc(-c2cc(-c3cc(S(=O)(=O)NCCO)ccc3C)cnc2N)o1 [Example 104.5, 3-(6-amino-5-(2-methyloxazol-5-yl)pyridin-3-yl)-N-(2-hydroxyethyl)-4-methylbenzenesulfon-amide]
IC50 (PI 4-kinase beta): 3.1 µM

Cc1ncc(-c2cc(-c3cc(S(=O)(=O)NCC4CC4)ccc3C)cnc2N)o1 [Example 104.12, 3-(6-amino-5-(2-methyloxazol-5-yl)pyridin-3-yl)-N-(cyclopropylmethyl)-4-methylbenzenesulfon-amide]
IC50 (PI 4-kinase beta): 2.1 µM
